Read-outs that look alike come from different tables or passages of the source.
Columns and labels:
CYP3A4 = target: T1, CYP3A4 (Homo sapiens, UniProt P08684); experiment: Cytochrome oxidase P450 inhibition test, CYP3A4; assay type: in vitro ADME; conditions: liver microsome incubation
T1 construct: from tissue; host or cells: liver microsome
Protocol: (§1) 100 mM K-Buffer: 9.5 mL of stock solution A was mixed with 40.5 mL of stock solution B, the total volume was adjusted to […] with ultrapure water, and the buffer was titrated to pH 7.4 with KOH or H3PO4. • Starting material A (1 M potassium dihydrogen phosphate): 136.5 g of potassium dihydrogen phosphate in 1 L of water. • Stock B […] in 1 L of water. The test substance powder was prepared into a stock solution with a certain concentration using DMSO or other organic solvents, which was then further diluted using a proper organic solvent. The extracorporeal incubation system for CYP450 enzyme metabolism phenotype study was biochemical reaction of a prepared liver microsome, a redox coenzyme, and an enzyme-specific selective inhibitor in simulated physiological temperature and environment. The concentration of the parent drug or a metabolite thereof in the incubation solution was determined by LC-MS/MS.

CYP2C19 = target: T2, CYP2C19 (Homo sapiens, UniProt P33261); experiment: Cytochrome oxidase P450 inhibition test, CYP2C19; assay type: in vitro ADME; conditions: liver microsome incubation
T2 construct: from tissue; host or cells: liver microsome
T2 sequence (P33261 whole entry): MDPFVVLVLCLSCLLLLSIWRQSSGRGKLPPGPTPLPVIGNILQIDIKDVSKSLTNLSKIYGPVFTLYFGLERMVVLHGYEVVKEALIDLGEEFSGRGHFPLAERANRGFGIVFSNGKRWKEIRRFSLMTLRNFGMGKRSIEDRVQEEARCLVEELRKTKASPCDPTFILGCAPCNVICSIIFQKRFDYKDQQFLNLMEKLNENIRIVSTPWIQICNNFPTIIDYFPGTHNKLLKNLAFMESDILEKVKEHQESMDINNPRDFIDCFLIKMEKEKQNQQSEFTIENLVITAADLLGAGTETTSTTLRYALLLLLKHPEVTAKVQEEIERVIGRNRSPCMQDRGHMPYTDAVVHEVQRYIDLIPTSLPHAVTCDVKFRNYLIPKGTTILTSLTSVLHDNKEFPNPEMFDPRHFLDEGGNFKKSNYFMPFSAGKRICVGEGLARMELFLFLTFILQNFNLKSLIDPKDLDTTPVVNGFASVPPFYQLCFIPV
Protocol: as §1

[1] = Metabolic stability test in hepatocytes, mouse; assay type: in vitro ADME; conditions: hepatocytes (suspension), Table 5: metabolic stability in hepatocytes, up to 90 min, read-out: Metabolic half-life in mouse liver microsome (T½, min)
Protocol: (§2) This experimental example was used to test the metabolic stability of the compounds in hepatocytes.
(§3) A suspension of hepatocytes was prepared at 0.5×10^6/mL with a pre-heated medium, then 198 μL of the pre-heated cell suspension was added to a 96-well plate. To each well of the 96-well plate, 2 μL of the test compound was added so that the final concentration was 1 μM, and 2 replicate wells were set. For the T=0 min sample, the compound was mixed well with the cells for 1 min, then […] was immediately added to 125 μL of a stop solution (an acetonitrile solution containing 200 ng/mL tolbutamide and 200 ng/mL labetalol) under an ice bath and mixed well. At the same time, all the plates were placed in an incubator at 37° C. with 5% CO2, with the shaker set at 600 rpm. The sample was mixed well at 15, 30, 60, and 90 min of incubation, respectively, and 25 μL of the sample was added to 125 μL of a stop solution (an acetonitrile solution containing 200 ng/mL tolbutamide and 200 ng/mL labetalol) under an ice bath, mixed well, and shaken at 500 rpm for 10 min. Subsequently, the plate was centrifuged for 20 min at 3220×g at 4° C. After the centrifugation was completed, 80 μL of the supernatant from each well was transferred to another 96-well plate containing 240 μL of ultrapure water. Subsequently, analysis was carried out using LC-MS/MS, and intrinsic clearance (CLint) and half-life (T½) were calculated.

[2] = Stability test in liver microsomes, mouse; assay type: in vitro ADME, CD-1 mice; conditions: CD-1; mouse liver microsomes 0.5 mg/mL, 1.0 μM substrate, up to 60 min; read-out: Metabolic half-life in mouse liver microsome (T½, min)
[3] = Pharmacokinetic test in rats (IV and PO); assay type: in vivo; conditions: rat, plasma, SD rats; for half-life: read-out: T½ (converted)
[4] = Metabolic stability test in hepatocytes, human; assay type: in vitro ADME; conditions: hepatocytes (suspension), Table 5: metabolic stability in hepatocytes, up to 90 min, read-out: Metabolic half-life in human liver microsome (T½, min)
Protocol: as §2
as §3, with “After the centrifugation was completed, 80 μL of the supernatant from each well was transferred to another 96-well plate containing 240 μL of ultrapure water.” left out

[5] = tested on: Human colorectal adenocarcinoma cells HCT116-MTAP-KO; experiment: Mouse xenograft tumor pharmacodynamic model, HCT116-MTAP-KO; assay type: in vivo
Protocol: (§4) In this example, the in vivo efficacy of the compound in a mouse xenograft tumor model after intragastric (PO) administration was tested.
Human colorectal adenocarcinoma cells HCT116-MTAP-KO were cultured in monolayer in vitro under the condition of McCoy's 5A medium containing 10% fetal bovine serum and 1% penicillin and streptomycin, and the culture was carried out at 37° C. with 5% CO2. The cells were digested with trypsin three times a week for passaging. When the saturation degree of the cells was 80-90%, the cells were collected, counted and inoculated. 0.1 mL (5×10^6 cells) of HCT116-MTAP-KO cells were subcutaneously inoculated on the right back of each mouse. On day 16 after inoculation of the cells, the mean tumor volume reached 154 mm^3. The mice were randomly grouped for administration and intragastrically dosed once daily. Changes in body weight and tumor volume were recorded. After a certain number of days of administration, the experiment was ended. Tumor volume changes and mouse body weight changes were counted and analyzed. AG270 (CAS: 2201056-66-6) was the positive control compound.

[6] = tested on: Human pancreatic cancer cells KP-4; experiment: Mouse xenograft tumor pharmacodynamic model, KP-4; assay type: in vivo; conditions: KP-4 xenograft, 29 days of administration
Protocol: as §4
Human pancreatic cancer cells KP-4 were cultured in monolayer in vitro under the condition of 1640 medium containing […] and […] and streptomycin, and the culture was carried out at 37° C. with 5% CO2. The cells were digested with trypsin three times a week for passaging. When the saturation degree of the cells was 80-90%, the cells were collected, counted and inoculated. 0.1 mL (5×10^6 cells) of KP-4 cells were subcutaneously inoculated on the right back of each mouse. On day 34 after inoculation of the cells, the mean tumor volume reached 154 mm^3. The mice were randomly grouped for administration and intragastrically dosed once daily. Changes in body weight and tumor volume were recorded. After 29 days of administration, the experiment was ended. Tumor volume changes and mouse body weight changes were counted and analyzed. AG270 (CAS: 2201056-66-6) was the positive control compound.

T1 sequence (P08684 whole entry): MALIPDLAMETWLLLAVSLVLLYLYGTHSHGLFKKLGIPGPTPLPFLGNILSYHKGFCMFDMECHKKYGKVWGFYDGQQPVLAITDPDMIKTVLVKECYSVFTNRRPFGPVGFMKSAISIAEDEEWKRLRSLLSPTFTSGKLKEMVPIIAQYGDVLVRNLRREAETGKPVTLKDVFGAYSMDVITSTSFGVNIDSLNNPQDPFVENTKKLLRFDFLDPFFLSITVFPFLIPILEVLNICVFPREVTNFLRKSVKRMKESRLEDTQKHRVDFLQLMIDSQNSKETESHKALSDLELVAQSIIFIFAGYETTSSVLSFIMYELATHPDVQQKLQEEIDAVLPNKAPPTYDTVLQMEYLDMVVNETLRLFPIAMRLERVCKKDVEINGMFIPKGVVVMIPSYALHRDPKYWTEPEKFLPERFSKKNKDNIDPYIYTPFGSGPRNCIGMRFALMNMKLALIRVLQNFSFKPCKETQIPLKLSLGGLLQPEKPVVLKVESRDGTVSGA

| Compound | IC50 (CYP3A4) [µM] | IC50 (CYP2C19) [µM] | half-life at 1 μM [1] [min] | half-life at 1 μM [2] [min] | AUC ([3]; IV 1 mg/kg) [µM·h] | clearance ([3]; IV 1 mg/kg) [mL/min/kg] | half-life ([3]; IV 1 mg/kg) [h] | AUC ([3]; PO 5 mg/kg) [µM·h] | half-life ([3]; PO 5 mg/kg) [h] | further results |
| --- | --- | --- | --- | --- | --- | --- | --- | --- | --- | --- |
| Cc1ncccc1-n1c(=O)c2nn(C)cc2c2ccc(C(F)(F)F)nc21 (single isomer, unassigned) [Compound B180] | > 10 | > 10 | 47.1 | – | – | – | – | – | – | – |
| Cn1cc2c(n1)c(=O)n(-c1cccnc1)c1cc(Cl)ccc21 [Compound B12] | > 10 | > 10 | 68.8 | > 145 | 18.9 | 2.67 | 3.4 | 223 | 3.7 | bioavailability ([3]; IV 1 mg/kg, PO 5 mg/kg): 217% |
| Cn1cc2c(n1)c(=O)n(-c1cccc3[nH]ncc13)c1cc(Cl)ccc21 [Compound B60] | > 10 | > 10 | – | > 145 | – | – | – | – | – | – |
| Cn1cc2c(n1)c(=O)n(-c1cccc3[nH]ncc13)c1cc(Cl)c(F)cc21 [Compound B257] | – | – | – | – | 177 | 0.283 | 8.8 | – | – | Tumor growth inhibition percentage (TGI) ([5]; PO 1 mg/kg once a day, 15 days of administration): once a day TGI = 77.29%; Tumor growth inhibition percentage (TGI) ([5]; PO 1 mg/kg once a day, 28 days of administration): once a day TGI = 51.34%; Tumor growth inhibition percentage (TGI) ([5]; PO 3 mg/kg once a day, 28 days of administration): once a day TGI = 87.78%; bioavailability ([3]; IV 1 mg/kg, PO 10 mg/kg): 243%; half-life ([3]; PO 10 mg/kg): 72.8 h; Tumor growth inhibition percentage (TGI) ([6]; PO 0.3 mg/kg once a day): once a day TGI = 66.25%; Tumor growth inhibition percentage (TGI) ([6]; PO 1 mg/kg once a day): once a day TGI = 90.06%; Tumor growth inhibition percentage (TGI) ([6]; PO 3 mg/kg once a day): once a day TGI = 97.08% |
| Cn1cc2c(n1)c(=O)n(-c1cccc3[nH]ncc13)c1cc(Cl)c(C#N)cc21 [Compound B258] | – | – | – | – | – | – | – | – | – | Tumor growth inhibition percentage (TGI) ([5]; PO 3 mg/kg once a day, 15 days of administration): once a day TGI = 52.48%; Tumor growth inhibition percentage (TGI) ([5]; PO 10 mg/kg once a day, 15 days of administration): once a day TGI = 72.58%; Tumor growth inhibition percentage (TGI) ([5]; PO 30 mg/kg once a day, 15 days of administration): once a day TGI = 81.2%; Tumor growth inhibition percentage (TGI) ([5]; PO 100 mg/kg once a day, 15 days of administration): once a day TGI = 83.75% |
| Cn1cc2c(n1)c(=O)n(-c1cccnc1C1CC1)c1cc(Cl)c(F)cc21 [Compound B340] | – | – | 124 | – | 10.2 | 4.5 | 6.7 | 68.9 | 14.7 | Tumor growth inhibition percentage (TGI) ([5]; PO 3 mg/kg once a day, 22 days of administration): once a day TGI = 48.04%; Tumor growth inhibition percentage (TGI) ([5]; PO 10 mg/kg once a day, 22 days of administration): once a day TGI = 61.99%; Tumor growth inhibition percentage (TGI) ([5]; PO 30 mg/kg once a day, 22 days of administration): once a day TGI = 72.55%; half-life at 1 μM [4]: > 217 min |

Now from value to compound, other results behind:

| IC50 (CYP3A4) [µM] | IC50 (CYP2C19) [µM] | half-life at 1 μM [1] [min] | half-life at 1 μM [2] [min] | AUC ([3]; IV 1 mg/kg) [µM·h] | clearance ([3]; IV 1 mg/kg) [mL/min/kg] | half-life ([3]; IV 1 mg/kg) [h] | AUC ([3]; PO 5 mg/kg) [µM·h] | half-life ([3]; PO 5 mg/kg) [h] | Compound | further results |
| --- | --- | --- | --- | --- | --- | --- | --- | --- | --- | --- |
| – | – | 14.9 | 120 | – | – | – | – | – | Cn1cc2c(n1)c(=O)n(-c1cccc(O)c1)c1nc(C(F)(F)F)ccc21 [Compound B148] | – |
| > 30 | > 30 | 91.1 | > 145 | 120 | 0.333 | 6.7 | 541 | 9.5 | Cn1cc2c(n1)c(=O)n(-c1cccc3[nH]ncc13)c1nc(C(F)(F)F)ccc21 [Compound B181] | bioavailability ([3]; IV 1 mg/kg, PO 5 mg/kg): 90%; half-life at 1 μM [4]: > 217 min |
| – | – | – | 136 | – | – | – | – | – | Cn1cc2c(n1)c(=O)n(-c1ccccc1Cl)c1nc(C(F)(F)F)ccc21 [Compound B182] | – |
